This passage reports IC50 results from BindingDB's records for patent US20250352549 (Avelos Therapeutics, 2025).

A value given as a limit tells only on which side of the number the result lay.

The experiment has as its target T1, Serine/threonine-protein kinase greatwall (Human, UniProt Q96GX5).
T1 sequence (Q96GX5 whole entry): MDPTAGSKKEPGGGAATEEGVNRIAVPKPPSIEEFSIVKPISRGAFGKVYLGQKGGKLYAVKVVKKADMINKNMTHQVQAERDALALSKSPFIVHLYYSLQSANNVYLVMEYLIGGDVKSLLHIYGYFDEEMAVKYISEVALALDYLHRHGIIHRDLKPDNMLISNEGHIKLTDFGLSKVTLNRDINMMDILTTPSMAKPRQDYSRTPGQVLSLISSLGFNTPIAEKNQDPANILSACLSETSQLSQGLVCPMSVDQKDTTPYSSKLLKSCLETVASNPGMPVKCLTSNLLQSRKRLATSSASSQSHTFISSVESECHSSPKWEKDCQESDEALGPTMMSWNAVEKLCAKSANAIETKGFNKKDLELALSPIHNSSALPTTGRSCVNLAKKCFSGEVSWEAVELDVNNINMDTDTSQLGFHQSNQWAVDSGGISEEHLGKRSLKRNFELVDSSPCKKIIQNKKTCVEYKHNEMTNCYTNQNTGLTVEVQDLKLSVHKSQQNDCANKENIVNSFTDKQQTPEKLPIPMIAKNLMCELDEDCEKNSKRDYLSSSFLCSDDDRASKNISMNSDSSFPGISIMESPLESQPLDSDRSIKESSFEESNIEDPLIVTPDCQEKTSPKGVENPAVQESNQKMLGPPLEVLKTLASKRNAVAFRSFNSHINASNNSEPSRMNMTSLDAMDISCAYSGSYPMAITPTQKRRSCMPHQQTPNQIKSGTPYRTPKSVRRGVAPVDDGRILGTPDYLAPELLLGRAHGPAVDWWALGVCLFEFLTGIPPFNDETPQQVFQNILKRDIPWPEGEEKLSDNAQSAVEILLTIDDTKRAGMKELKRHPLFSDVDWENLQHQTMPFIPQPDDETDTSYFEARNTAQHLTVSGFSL
Put plainly: MASTL Activity Assay. As for the experimental part:
Wild-type human active MASTL (154 pM) was incubated in assay buffer (50 mM HEPES, 100 mM NaCl, 0.1 mM EGTA, 10 mM MgCl2, 0.01% Tween-20, 0.5 mM TCEP, pH 7.5) with biotin tagged 40-mer ENSA peptide (10 nM), test compound and ATP (18 μM) for 60 minutes at room temperature. Test compounds were assayed using a 12-point dose range consisting of a 0, DMSO control and 10 sequential doses consisting from 0.0005, 0.002, 0.005, 0.014, 0.04, 0.12, 0.37, 1.11, 3.33 and 10 μM. The DMSO concentration was the same (1%) in all samples. An equal volume of detection buffer (assay buffer+267.5 pM Ab-K, 1.25 nM SA-D2, 20 mM EDTA and 400 mM KF) was added to stop the reaction to make a final volume of 20 μl, RT for 60 mins. Activity was measured using a plate reader (PerkinElmer EnSight) by the FRET signal generated between SA-D2 (streptavidin-D2) and Ab-K (anti-phospho-Serine 67 ENSA antibody (rabbit polyclonal, using standard techniques by a commercial supplier) conjugated to Cryptate). HTRF reagents (CisBio) were prepared as per the manufacturer recommendations. The 40-mer biotin-tagged ENSA peptide (synthesised by Bionics) used was based around Serine 67 on ENSA ([…]).
As to `[2H]C([2H])([2H])n1ncc2ccc(-c3nc(N)nc(NC(C)(C)Cc4cccc(F)n4)n3)cc21` [US20250352549, Example 36], the IC50 was < 500 nM. The value for `Cc1ncc2ccc(-c3nc(N)nc(NC(c4c[nH]c(C(F)(F)F)n4)C4CC4)n3)cn12` (configuration not stated) [US20250352549, Example 154] was < 500 nM; that for `Cc1ncc2ccc(-c3nc(N)nc(NC(c4nnc(C(F)(F)F)o4)C(C)C)n3)cn12` (configuration not stated) [US20250352549, Example 166] was > 1000 nM; that for `CC(C)CC(Nc1nc(N)nc(-c2ccc3[nH]ncc3c2)n1)c1c[nH]c(C(F)(F)F)n1` (configuration not stated) [US20250352549, Example 43] was “in the range around 750 nM”. On to `CCC(Nc1nc(N)nc(-c2ccc3cnc(C)n3c2)n1)c1ccc(F)cn1` (configuration not stated) [US20250352549, Example 140], for which the IC50 is < 500 nM. In the case of `Cc1ncc2ccc(-c3nc(N)nc(NC(c4ccc(CN)cn4)C(C)C)n3)cn12` (configuration not stated) [US20250352549, Example 178] it was < 500 nM; in that of `Cc1ncc2ccc(-c3nc(N)nc(NC(Cc4cccc(Cl)c4Cl)c4nc[nH]n4)n3)cn12` (configuration not stated) [US20250352549, Example 22], < 500 nM.

With `Cc1ncc2ccc(-c3nc(N)nc(N(C)C(c4c[nH]c(C(F)(F)F)n4)C(C)C)n3)cn12` (configuration not stated) [US20250352549, Example 161], the IC50 result was “in the range around 750 nM”. In the case of `Cc1ncc2ccc(-c3nc(C#N)nc(NC(Cc4cccc(Cl)c4Cl)C(=O)O)n3)cn12` (configuration not stated) [US20250352549, Example 15] it was > 1000 nM; in that of `Cc1ncc2ccc(-c3nc(N)nc(NC(Cc4cccc(Cl)c4Cl)c4ncno4)n3)cn12` (configuration not stated) [US20250352549, Example 23], > 1000 nM; in that of `Cc1ncc2ccc(-c3nc(N)nc(NC(C)(C)c4nc(C(F)(F)F)no4)n3)cn12` [US20250352549, Example 160], “in the range around 750 nM”. In the case of `Nc1nc(NC(c2ccn(C(F)F)n2)C2CC2)nc(-c2ccc3[nH]ncc3c2)n1` (configuration not stated) [US20250352549, Example 33] it was < 500 nM; in that of `Nc1nc(NC(c2c[nH]c(C(F)(F)F)n2)C2CC2)nc(-c2ccc3[nH]ncc3c2)n1` (configuration not stated) [US20250352549, Example 32], < 500 nM; in that of `CC(C)C(Nc1nc(N)nc(-c2ccc3c(cnn3C)c2)n1)c1c[nH]c(C(F)(F)F)n1` (configuration not stated) [US20250352549, Example 34], < 500 nM. In the case of `CC(=O)N(C)C(CNc1cc(-c2ccc3cnc(C)n3c2)nc(N)n1)c1cccc(Cl)c1Cl` (configuration not stated) [US20250352549, Example 19] it was < 500 nM; in that of `[2H]C([2H])([2H])n1ncc2ccc(-c3cc(NC(C)(C)Cn4ccc(C(F)(F)F)n4)nc(N)n3)cc21` [US20250352549, Example 40], < 500 nM; in that of `CNc1nc(NC(C)(C)c2ccn(C(F)F)n2)nc(-c2ccc3cnc(C)n3c2)n1` [US20250352549, Example 135], < 500 nM. Consider `Cn1ncc2ccc(-c3nc(N)nc(NC(C)(C)c4c[nH]c(C(F)(F)F)n4)n3)cc21` [US20250352549, Example 174], for which the IC50 was < 500 nM.

Regarding `CC(C)C(Nc1nc(N)nc(-c2ccc3c(F)nn(C)c3c2)n1)c1c[nH]c(C(F)(F)F)n1` (configuration not stated) [US20250352549, Example 45], the IC50 is < 500 nM. Regarding `CC(C)C(Nc1nc(N)nc(-c2ccc3[nH]ncc3c2)n1)c1c[nH]c(C(F)(F)F)n1` (configuration not stated) [US20250352549, Example 24], the IC50 is < 500 nM.

As for `Cc1ncc2ncc(-c3nc(N)nc(NC(C)(C)c4ccn(C(F)F)n4)n3)cn12` [US20250352549, Example 1], the IC50 is < 500 nM. As for `Cc1ncc2ncc(-c3nc(N)nc(NC(C)(C)c4ccn(C(F)F)n4)n3)cn12` [US20250352549, Example 13], the IC50 was > 1000 nM. In the case of `Cc1n[nH]c2ccc(-c3nc(N)nc(NC(c4c[nH]c(C(F)(F)F)n4)C(C)C)n3)cc12` (configuration not stated) [US20250352549, Example 35], the IC50 was < 500 nM. In the case of `CCC(Nc1nc(N)nc(-c2ccc3cn[nH]c3c2)n1)c1c[nH]c(C(F)(F)F)n1` (configuration not stated) [US20250352549, Example 157] it was < 500 nM. The value for `Cc1ncc2ccc(-c3nc(N)nc(N(C)Cc4cccc(F)c4Cl)n3)cn12` [US20250352549, Example 162] was “in the range around 750 nM”. The value for `Cc1ncc2ccc(-c3nc(N)nc(N(C)Cc4c[nH]c(C(F)(F)F)n4)n3)cn12` [US20250352549, Example 164] was < 500 nM; that for `Cc1ncc2ccc(-c3nc(N)nc(NCc4nc(C(F)(F)F)no4)n3)cn12` [US20250352549, Example 159] was “in the range around 750 nM”; that for `Cc1ncc2ccc(-c3nc(N)nc(NC(c4ccccc4)c4c[nH]c(C(F)(F)F)n4)n3)cn12` (configuration not stated) [US20250352549, Example 2] was > 1000 nM. With `CC(C)C(Nc1nc(N)nc(-c2ccc3cn[nH]c3c2)n1)c1ccn(C(F)F)n1` (configuration not stated) [US20250352549, Example 167], the IC50 is < 500 nM. Take `Cn1ncc2cc(-c3nc(N)nc(NC(C)(C)c4ccn(C(F)F)n4)n3)ccc21` [US20250352549, Example 48]: the IC50 is < 500 nM. In the case of `CCC(Nc1nc(N)nc(-c2ccc3[nH]ncc3c2)n1)c1c[nH]c(C(F)(F)F)n1` (configuration not stated) [US20250352549, Example 8] it was < 500 nM; in that of `CNc1nc(NC(c2ccn(C(F)F)n2)C(C)C)nc(-c2ccc3cn[nH]c3c2)n1` (configuration not stated) [US20250352549, Example 171], < 500 nM; in that of `[2H]C([2H])([2H])Nc1nc(NC(C)(C)c2ccn(C(F)F)n2)nc(-c2ccc3cnc(N)n3c2)n1` [US20250352549, Example 30], < 500 nM. The value for `CNc1nc(NC(Cc2cccc(Cl)c2Cl)C(=O)O)nc(-c2ccc3cnc(C)n3c2)n1` (configuration not stated) [US20250352549, Example 138] was < 500 nM; that for `CNc1ncc2ccc(-c3nc(N)nc(NC(C)(C)c4ccn(C(F)F)n4)n3)cn12` [US20250352549, Example 37] was < 500 nM; that for `Cc1ncc2ccc(-c3nc(N)nc(NC(c4ccc(C#N)cn4)C(C)C)n3)cn12` (configuration not stated) [US20250352549, Example 168] was > 1000 nM.

For the compound `[2H]C([2H])([2H])Nc1nc(NC(c2c[nH]c(C(F)(F)F)n2)C(C)C)nc(-c2ccc3cnn(C)c3c2)n1` (configuration not stated) [US20250352549, Example 31], the IC50 was < 500 nM. The value for `Cc1ncc2ccc(-c3cc(NC(c4c[nH]c(C(F)(F)F)n4)C(C)C)nc(N)n3)cn12` (configuration not stated) [US20250352549, Example 150] was < 500 nM.

Consider `Cc1ncc2ccc(-c3nc(N)nc(NC(C)c4ccc(F)cn4)n3)cn12` (configuration not stated) [US20250352549, Example 139], for which the IC50 is < 500 nM. The value for `[2H]C([2H])([2H])n1ncc2ccc(-c3nc(N)nc(NC(c4c[nH]c(C(F)(F)F)n4)C(C)C)n3)cc21` (configuration not stated) [US20250352549, Example 28] was < 500 nM; that for `Cc1ncc2ccc(-c3nc(N)nc(NC(C)(C)c4ccn(CCN)n4)n3)cn12` [US20250352549, Example 175] was < 500 nM. The value for `CC(C)CC(Nc1nc(N)nc(-c2ccc3cn[nH]c3c2)n1)c1c[nH]c(C(F)(F)F)n1` (configuration not stated) [US20250352549, Example 179] was < 500 nM. The value for `Cc1ncc2ccc(-c3nc(N)nc(NC(c4cn(C)c(C(F)(F)F)n4)C(C)C)n3)cn12` (configuration not stated) [US20250352549, Example 165] was < 500 nM; that for `COC(=O)C(Cc1cccc(Cl)c1Cl)Nc1cc(-c2ccc3cnc(C)n3c2)nc(N)n1` (configuration not stated) [US20250352549, Example 3] was < 500 nM. Take `CC(C)(Cc1cccc(Cl)c1Cl)Nc1nc(N)nc(-c2ccc3cnc(N)n3c2)n1` [US20250352549, Example 41]: the IC50 was < 500 nM. The value for `Cc1ncc2ccc(-c3nc(N)nc(NC(c4nc(C(F)(F)F)no4)C(C)C)n3)cn12` (configuration not stated) [US20250352549, Example 158] was > 1000 nM.

In the case of `Cc1ncc2ccc(-c3cc(NC(Cc4cccc(F)c4F)C(=O)O)nc(N)n3)cn12` (configuration not stated) [US20250352549, Example 144], the IC50 is < 500 nM.
